Data reported in patent US20100197590A1, “4-AMINO-7,8-DIHYDROPYRIDO[4,3-d]PYRIMIDIN-5(6H)-ONE DERIVATIVES” (Pfizer Inc, priority 2009, published 2010).

target: T1, Human full-length diacylglycerol:acylCoA acyltransferase 1 (DGAT-1) (Homo sapiens, UniProt O75907); assay: In vitro DGAT-1 inhibition, Assay 1; type: biochemical; conditions: Sf9 microsomes at 25 μg/mL, [14C]decanoylCoA, eight inhibitor concentrations; average where n > 1
T1 construct: Human full-length diacylglycerol:acylCoA acyltransferase 1 (DGAT-1) was expressed in Sf9 insect cells; made in house; host or cells: Sf9 insect cells (baculovirus)
T1 sequence (O75907 1-488): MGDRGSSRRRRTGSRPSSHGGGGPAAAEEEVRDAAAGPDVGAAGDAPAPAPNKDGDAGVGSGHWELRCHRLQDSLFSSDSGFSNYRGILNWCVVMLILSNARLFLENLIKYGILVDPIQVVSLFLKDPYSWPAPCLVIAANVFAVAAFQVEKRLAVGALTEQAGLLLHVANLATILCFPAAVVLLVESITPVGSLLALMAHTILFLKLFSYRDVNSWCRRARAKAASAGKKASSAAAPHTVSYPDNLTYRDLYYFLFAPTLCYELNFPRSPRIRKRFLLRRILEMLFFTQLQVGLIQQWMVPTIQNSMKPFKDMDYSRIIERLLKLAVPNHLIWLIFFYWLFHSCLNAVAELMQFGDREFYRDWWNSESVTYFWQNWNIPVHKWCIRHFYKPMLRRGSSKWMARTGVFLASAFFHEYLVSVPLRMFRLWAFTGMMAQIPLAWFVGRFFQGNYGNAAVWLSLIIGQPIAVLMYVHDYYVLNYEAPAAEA
Procedure: Human full-length diacylglycerol:acylCoA acyltransferase 1 (DGAT-1) was expressed in Sf9 insect cells which are then lysed and a crude membrane fraction (105,000×g pellet) was prepared. The DGAT-1 gene is a human DGAT-1 gene described in J Biol Chem 273:26765 (1998) and U.S. Pat. No. 6,100,077.
In vitro inhibition of DGAT-1 was measured using a modification, further described below, of the assay methodology described in U.S. Pat. No. 6,994,956 B2. The cells were cultured as follows. Sf9 cells (20 L) were infected with 4 mL of DGAT-1 Baculovirus Infected Insect Cells (BIIC) for 72 hours in a Wave Bioreactor System 20/50P (Wave Biotec/GE Healthcare).
Crude DGAT-1 microsomes were prepared as follows. Cell pellets were washed once with ice-cold Dulbecco's phosphate-buffered saline. Cells were collected in tabletop centrifuge (Beckman GS-6KR), 15 minutes, 2000×g, 4° C. Twenty (20) mL of ice-cold Microsome Buffer (MB) was added per 5 g of cell pellet. The suspension was passed through a microfluidizer 3 times (18K psi). […] The microsome concentration was determined using Bio-Rad Protein DC Protein Assay. […]
The Microsome Buffer, used for microsome preparation, was prepared by conventional means and contained 125 mM sucrose, 3 mM imidazole, 0.2 μg/mL aprotinin, 0.2 μg/mL leupeptin and 5 mM dithiothreitol (Cleland's reagent) at pH-7.4 DGAT-1 activity was measured in 384-well format in a total assay volume of 20 μl that contained, Hepes buffer (50 mM, pH 7.5), MgCl2 (10 mM), bovine serum albumin (0.6 mg/ml), [^14C]decanoylCoA (25 μM, 58 Ci/mol) and microsomes (5.6 μg/ml) into which 1,2 dioleoyl-sn-glycerol (75 μM) in acetone has already been incorporated. […]
The reactions were allowed to proceed for 1.5 h at room temperature and then terminated by the addition of 20 μl of EDTA (40 mM). […] Plates contents were allowed to partition for 15 to 30 min before ^14C was measured in a scintillation spectrometer (Wallac Microbeta Trilux 1450-030, 12 detector in the top-count DPM mode). […]

First: Cc1nc(N)c2c(n1)CCN(c1ccc(C3CCC(CC(=O)O)CC3)cc1)C2=O (stereo not drawn) [Example 13, 2-(4-(4-(4-amino-2-methyl-5-oxo-7,8-dihydropyrido[4,3-d]pyrimidin-6(5H)-yl)phenyl)cyclohexyl)acetic acid]
Second: Cc1nc(N)c2c(n1)CCN(c1ccc([C@H]3CC[C@H](CC(=O)O)CC3)cc1)C2=O [Example 14, {trans-4-[4-(4-amino-2-methyl-5-oxo-7,8-dihydropyrido[4,3-d]pyrimidin-6(5H)-yl)phenyl]cyclohexyl}acetic acid]
The IC50 of the first is 2.7-fold lower: 231 nM for the first, 618 nM for the second. The first is the more potent here.

Compound `Cc1nc(N)c2c(n1)CCN(c1ccc([C@H]3CC[C@@H](CC(=O)O)CC3)cc1)C2=O` [Example 15, {cis-4-[4-(4-amino-2-methyl-5-oxo-7,8-dihydropyrido[4,3-d]pyrimidin-6(5H)-yl)phenyl]cyclohexyl}acetic acid] has an IC50 of 717 nM.
